Measured values taken from patent publication US8686150B2 (Sanofi, priority 2011, dated 2014).

Target: T1, human full-length recombinant PKC βII (Homo sapiens, UniProt P05771)
T1 construct: Active human full-length recombinant PKC βII; purchased Invitrogen GmbH, Darmstadt, Germany
Assay: Determination of PKC βII inhibition (Caliper mobility-shift kinase assay, Fluorescein-RFARKGSLRQKNV peptide substrate)
Type: biochemical
Conditions: example compounds at a final concentration of 1.14 μM (±0.15 μM)
How it was run: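 Full-length PKC βII (30 ng/ml in pre-dilution) with PS/DAG/Ca2+ activators, pH 7.4; fluorescein peptide and ATP at 3 μM and 120 μM before mixing. Reaction ran 60 min at 32 °C, was EDTA-stopped, and was read by mobility shift. % inhibition came from product/(substrate+product) peak heights, tested at 1.14 μM final.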

T1 sequence (P05771 1-673 isoform P05771-2): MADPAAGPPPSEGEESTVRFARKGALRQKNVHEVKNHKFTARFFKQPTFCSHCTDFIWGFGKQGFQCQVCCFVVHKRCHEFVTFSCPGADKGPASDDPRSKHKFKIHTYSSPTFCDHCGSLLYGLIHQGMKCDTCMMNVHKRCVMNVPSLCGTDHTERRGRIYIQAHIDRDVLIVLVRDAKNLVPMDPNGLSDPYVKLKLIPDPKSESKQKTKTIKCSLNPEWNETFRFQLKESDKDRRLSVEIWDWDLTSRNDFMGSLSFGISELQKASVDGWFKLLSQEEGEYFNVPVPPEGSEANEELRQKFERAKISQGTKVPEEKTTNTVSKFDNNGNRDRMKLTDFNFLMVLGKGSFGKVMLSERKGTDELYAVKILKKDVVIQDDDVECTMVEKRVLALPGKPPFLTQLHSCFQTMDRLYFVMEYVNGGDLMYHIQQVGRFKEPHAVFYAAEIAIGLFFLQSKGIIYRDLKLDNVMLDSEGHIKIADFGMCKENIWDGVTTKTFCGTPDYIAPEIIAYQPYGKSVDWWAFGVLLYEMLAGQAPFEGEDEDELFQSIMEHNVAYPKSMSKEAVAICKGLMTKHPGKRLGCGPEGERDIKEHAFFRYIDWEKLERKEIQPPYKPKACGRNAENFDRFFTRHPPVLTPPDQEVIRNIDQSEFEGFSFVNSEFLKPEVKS

Compound | inhibition at 1.14 µM [%]
O=C(c1cc(-c2ccc(O)cc2)nc2[nH]nc(C(F)(F)F)c12)N1CCC2(CCNCC2)C1 [Example 409, (2,8-Diaza-spiro[4.5]dec-2-yl)-[6-(4-hydroxy-phenyl)-3-trifluoromethyl-1H-pyrazolo[3,4-b]pyridin-4-yl]-methanone] | 23
Cc1n[nH]c2nc(-c3ccc(O)cc3)cc(C(=O)N3CCNC(C4CC4)C3)c12 (stereo not shown) [Example 86, (3-Cyclopropyl-piperazin-1-yl)-[6-(4-hydroxy-phenyl)-3-methyl-1H-pyrazolo[3,4-b]pyridin-4-yl]-methanone] | 96
Cc1cc(O)ccc1-c1cc(C(=O)N2CCNC[C@H]2c2ccccc2)c2c(C)n[nH]c2n1 [Example 150, [6-(4-Hydroxy-2-methyl-phenyl)-3-methyl-1H-pyrazolo[3,4-b]pyridin-4-yl]-((R)-2-phenyl-piperazin-1-yl)-methanone] | 100
Cc1n[nH]c2nc(-c3ccc(O)cc3)cc(C(=O)NCC(C)(CN3CCCC3)c3ccccn3)c12 (stereo not shown) [Example 286, 6-(4-Hydroxy-phenyl)-3-methyl-1H-pyrazolo[3,4-b]pyridine-4-carboxylic acid (2-methyl-2-pyridin-2-yl-3-pyrrolidin-1-yl-propyl)-amide] | 62
Cc1n[nH]c2nc(-c3ccc(O)cc3)cc(C(=O)NC3CC(C)(C)N(C)C(C)(C)C3)c12 [Example 276, 6-(4-Hydroxy-phenyl)-3-methyl-1H-pyrazolo[3,4-b]pyridine-4-carboxylic acid (1,2,2,6,6-pentamethyl-piperidin-4-yl)-amide] | 66
Cc1n[nH]c2nc(-c3ccc(O)cc3)cc(C(=O)N3CCN(C)CC3)c12 [Example 37, [6-(4-Hydroxy-phenyl)-3-methyl-1H-pyrazolo[3,4-b]pyridin-4-yl]-(4-methyl-piperazin-1-yl)-methanone] | 53
CCC1(CC)CNC(C)(C)CN1C(=O)c1cc(-c2ccc(O)cc2F)nc2[nH]nc(C)c12 [Example 450, (2,2-Diethyl-5,5-dimethyl-piperazin-1-yl)-[6-(2-fluoro-4-hydroxy-phenyl)-3-methyl-1H-pyrazolo[3,4-b]pyridin-4-yl]-methanone] | 100
CCC[C@H]1CN(C(=O)c2cc(-c3ccc(O)cc3F)nc3[nH]nc(C)c23)CCN1 [Example 422, [6-(2-Fluoro-4-hydroxy-phenyl)-3-methyl-1H-pyrazolo[3,4-b]pyridin-4-yl]-((S)-3-propyl-piperazin-1-yl)-methanone] | 95
Cc1n[nH]c2nc(-c3ccc(O)cc3)cc(C(=O)N3CC(C(C)(C)N)C3)c12 [Example 33, [3-(1-Amino-1-methyl-ethyl)-azetidin-1-yl]-[6-(4-hydroxy-phenyl)-3-methyl-1H-pyrazolo[3,4-b]pyridin-4-yl]-methanone] | 91
Cc1n[nH]c2nc(-c3ccc(O)cc3)cc(C(=O)N3CC4CCCN4CC3C)c12 (stereo not shown) [Example 284, [6-(4-Hydroxy-phenyl)-3-methyl-1H-pyrazolo[3,4-b]pyridin-4-yl]-(3-methyl-hexahydro-pyrrolo[1,2-a]pyrazin-2-yl)-methanone] | 66
O=C(c1cc(-c2ccc(O)cc2)nc2[nH]nc(C(F)(F)F)c12)N1CCC2(CCCNC2)C1 (stereo not shown) [Example 407, (2,7-Diaza-spiro[4.5]dec-2-yl)-[6-(4-hydroxy-phenyl)-3-trifluoromethyl-1H-pyrazolo[3,4-b]pyridin-4-yl]-methanone] | 20
Cc1n[nH]c2nc(-c3ccc(O)c(F)c3)cc(C(=O)N3CCOC4(CCNCC4)C3)c12 [Example 344, [6-(3-Fluoro-4-hydroxy-phenyl)-3-methyl-1H-pyrazolo[3,4-b]pyridin-4-yl]-(1-oxa-4,9-diaza-spiro[5.5]undec-4-yl)-methanone] | 64
Cc1n[nH]c2nc(-c3ccc(O)cc3)cc(C(=O)N3CCN4CCC[C@H]4C3)c12 [Example 383, (S)-Hexahydro-pyrrolo[1,2-a]pyrazin-2-yl-[6-(4-hydroxy-phenyl)-3-methyl-1H-pyrazolo[3,4-b]pyridin-4-yl]-methanone] | 66
